Read-outs that look alike come from different tables or passages of the source.
Columns and labels:
Format in all cases: biochemical
[1] = molecular target: T1, RIPK5 (Homo sapiens, UniProt Q6XUX3); assay: PanQinase kinase panel: RIPK5; conditions: read-out: INHIBITORY EFFECT @ 1 uM: RIPK5
T1 construct: purchased Reaction Biology Europe GmbH
T1 sequence (Q6XUX3 1-929): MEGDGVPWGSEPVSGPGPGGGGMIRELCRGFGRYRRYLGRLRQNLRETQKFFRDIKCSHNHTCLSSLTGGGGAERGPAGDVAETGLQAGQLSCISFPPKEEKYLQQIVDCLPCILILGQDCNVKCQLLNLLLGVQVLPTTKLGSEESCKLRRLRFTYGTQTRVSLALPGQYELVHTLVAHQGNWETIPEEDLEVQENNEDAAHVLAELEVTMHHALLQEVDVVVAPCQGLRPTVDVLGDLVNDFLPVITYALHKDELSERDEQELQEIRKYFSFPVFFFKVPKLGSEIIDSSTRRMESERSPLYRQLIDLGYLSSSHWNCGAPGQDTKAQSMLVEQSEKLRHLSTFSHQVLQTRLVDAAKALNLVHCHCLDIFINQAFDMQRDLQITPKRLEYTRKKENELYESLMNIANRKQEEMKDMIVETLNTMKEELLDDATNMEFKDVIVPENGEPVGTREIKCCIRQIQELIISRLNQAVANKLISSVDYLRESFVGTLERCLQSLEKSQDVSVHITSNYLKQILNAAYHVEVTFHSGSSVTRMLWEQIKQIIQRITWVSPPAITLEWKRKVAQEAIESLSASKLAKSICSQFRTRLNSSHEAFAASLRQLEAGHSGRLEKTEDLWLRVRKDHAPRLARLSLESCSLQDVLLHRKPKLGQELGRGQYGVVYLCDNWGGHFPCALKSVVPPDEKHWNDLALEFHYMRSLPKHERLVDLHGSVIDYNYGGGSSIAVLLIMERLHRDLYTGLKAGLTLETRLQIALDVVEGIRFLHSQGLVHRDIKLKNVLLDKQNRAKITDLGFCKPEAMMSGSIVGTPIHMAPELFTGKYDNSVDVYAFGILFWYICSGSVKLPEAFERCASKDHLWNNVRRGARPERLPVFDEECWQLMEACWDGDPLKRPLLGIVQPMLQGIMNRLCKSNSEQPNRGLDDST
Experimental: (§1) Screening procedures were performed in accordance with the company's on-line protocol [accessed on-line Mar.
(§2) For each kinase, the median value of the cpm of three wells was defined as “low control” (n=3). This value reflects unspecific binding of radioactivity to the plate in the absence of a protein kinase but in the presence of the substrate. Additionally, for each kinase the median value of the cpm of three other wells was taken as the “high control,” i.e. full activity in the absence of any inhibitor (n=3). The difference between high and low control of each enzyme was taken as 100% activity.
(§3) As part of the data evaluation the low control of each kinase was subtracted from the high control value as well as from their corresponding “compound values”. The residual activity (in %) for each compound well was calculated by using the following formula: Res. Activity (%)=100×[(signal of compound−low control)/(high control−low control)].

[2] = molecular target: T2, ACK1 (Homo sapiens, UniProt Q07912); assay: PanQinase kinase panel: ACK1
T2 construct: purchased Reaction Biology Europe GmbH
T2 sequence (Q07912 whole entry): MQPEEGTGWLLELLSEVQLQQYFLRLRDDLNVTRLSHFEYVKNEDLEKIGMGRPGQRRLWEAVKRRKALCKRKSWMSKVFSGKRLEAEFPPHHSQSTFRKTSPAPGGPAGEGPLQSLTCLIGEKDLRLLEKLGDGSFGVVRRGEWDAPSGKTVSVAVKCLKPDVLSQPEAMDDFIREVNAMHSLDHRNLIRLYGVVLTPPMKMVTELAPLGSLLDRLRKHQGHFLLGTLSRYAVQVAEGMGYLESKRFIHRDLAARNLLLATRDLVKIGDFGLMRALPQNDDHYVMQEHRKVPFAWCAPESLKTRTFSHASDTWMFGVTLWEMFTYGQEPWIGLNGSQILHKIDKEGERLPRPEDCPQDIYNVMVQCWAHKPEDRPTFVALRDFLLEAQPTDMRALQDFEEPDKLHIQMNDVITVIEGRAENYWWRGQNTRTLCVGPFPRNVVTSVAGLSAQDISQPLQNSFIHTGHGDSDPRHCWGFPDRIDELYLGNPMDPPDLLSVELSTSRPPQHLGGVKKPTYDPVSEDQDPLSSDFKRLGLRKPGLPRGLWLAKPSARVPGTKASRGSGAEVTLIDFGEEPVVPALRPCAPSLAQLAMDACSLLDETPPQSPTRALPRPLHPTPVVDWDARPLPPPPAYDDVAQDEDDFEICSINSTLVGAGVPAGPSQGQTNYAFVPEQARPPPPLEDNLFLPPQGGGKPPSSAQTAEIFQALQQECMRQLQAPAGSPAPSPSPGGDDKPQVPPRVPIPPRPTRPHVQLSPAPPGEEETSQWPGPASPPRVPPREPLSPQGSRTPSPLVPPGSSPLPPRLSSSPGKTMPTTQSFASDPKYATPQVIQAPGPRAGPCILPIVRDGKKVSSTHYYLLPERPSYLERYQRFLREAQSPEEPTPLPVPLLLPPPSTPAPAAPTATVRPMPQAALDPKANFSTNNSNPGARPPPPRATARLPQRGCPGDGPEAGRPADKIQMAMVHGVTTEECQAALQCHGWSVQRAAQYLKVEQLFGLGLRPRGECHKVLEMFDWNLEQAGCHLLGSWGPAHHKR
Experimental: as §1, §2, §3

[3] = molecular target: T3, EPHB2 (Homo sapiens, UniProt P29323); assay: PanQinase kinase panel: EPHB2; conditions: read-out: INHIBITORY EFFECT @ 1 uM: EPHB2
T3 construct: purchased Reaction Biology Europe GmbH
T3 sequence (P29323 19-1055): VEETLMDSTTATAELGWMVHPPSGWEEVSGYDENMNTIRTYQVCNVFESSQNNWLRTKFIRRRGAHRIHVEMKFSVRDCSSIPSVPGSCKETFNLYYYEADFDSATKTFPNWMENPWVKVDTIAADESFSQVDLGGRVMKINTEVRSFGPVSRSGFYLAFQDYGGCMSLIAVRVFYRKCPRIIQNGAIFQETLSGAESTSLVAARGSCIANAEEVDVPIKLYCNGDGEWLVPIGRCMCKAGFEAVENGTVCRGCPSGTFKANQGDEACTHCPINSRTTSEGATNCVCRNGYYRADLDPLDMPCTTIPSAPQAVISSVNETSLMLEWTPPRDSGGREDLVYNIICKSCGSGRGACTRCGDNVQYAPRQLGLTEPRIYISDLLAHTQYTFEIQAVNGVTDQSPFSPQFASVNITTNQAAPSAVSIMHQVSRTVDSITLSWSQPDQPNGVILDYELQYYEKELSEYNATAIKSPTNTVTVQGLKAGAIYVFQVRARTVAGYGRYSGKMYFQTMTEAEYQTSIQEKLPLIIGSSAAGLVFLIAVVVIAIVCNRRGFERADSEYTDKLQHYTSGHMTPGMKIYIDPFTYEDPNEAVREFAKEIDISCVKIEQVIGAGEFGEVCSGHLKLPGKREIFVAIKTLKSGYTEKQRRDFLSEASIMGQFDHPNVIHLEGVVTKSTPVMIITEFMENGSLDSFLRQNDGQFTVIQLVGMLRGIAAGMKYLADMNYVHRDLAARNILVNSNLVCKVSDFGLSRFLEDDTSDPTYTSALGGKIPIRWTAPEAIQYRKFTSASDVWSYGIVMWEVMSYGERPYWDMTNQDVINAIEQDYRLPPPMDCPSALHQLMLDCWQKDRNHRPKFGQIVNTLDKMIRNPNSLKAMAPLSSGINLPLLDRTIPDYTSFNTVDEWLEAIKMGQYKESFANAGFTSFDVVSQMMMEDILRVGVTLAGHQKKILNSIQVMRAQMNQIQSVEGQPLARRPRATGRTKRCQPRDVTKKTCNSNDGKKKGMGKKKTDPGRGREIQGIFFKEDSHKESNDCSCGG
Experimental: as §1, §2, §3

[4] = molecular target: T4, HCK (Homo sapiens, UniProt P08631); assay: PanQinase kinase panel: HCK; conditions: read-out: INHIBITORY EFFECT @ 1 uM: HCK
T4 construct: purchased Reaction Biology Europe GmbH
T4 sequence (P08631 whole entry): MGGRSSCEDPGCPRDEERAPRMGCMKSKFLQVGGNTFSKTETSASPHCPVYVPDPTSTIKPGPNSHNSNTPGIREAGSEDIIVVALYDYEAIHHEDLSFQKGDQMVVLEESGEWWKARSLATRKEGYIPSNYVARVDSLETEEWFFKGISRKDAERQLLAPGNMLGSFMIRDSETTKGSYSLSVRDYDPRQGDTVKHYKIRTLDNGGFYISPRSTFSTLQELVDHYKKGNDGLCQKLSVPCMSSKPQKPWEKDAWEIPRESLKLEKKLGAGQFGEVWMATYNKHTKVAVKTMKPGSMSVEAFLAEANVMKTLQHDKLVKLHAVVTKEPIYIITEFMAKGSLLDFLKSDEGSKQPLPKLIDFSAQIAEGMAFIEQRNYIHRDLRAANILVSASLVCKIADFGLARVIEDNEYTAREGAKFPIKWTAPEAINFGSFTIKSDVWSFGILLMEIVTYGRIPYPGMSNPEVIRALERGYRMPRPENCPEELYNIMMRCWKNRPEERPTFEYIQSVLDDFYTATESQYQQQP
Experimental: as §1, §2, §3

[5] = molecular target: T5, ABL1 (Homo sapiens, UniProt P00519); assay: PanQinase kinase panel: ABL1
T5 construct: purchased Reaction Biology Europe GmbH
T5 sequence (P00519 whole entry): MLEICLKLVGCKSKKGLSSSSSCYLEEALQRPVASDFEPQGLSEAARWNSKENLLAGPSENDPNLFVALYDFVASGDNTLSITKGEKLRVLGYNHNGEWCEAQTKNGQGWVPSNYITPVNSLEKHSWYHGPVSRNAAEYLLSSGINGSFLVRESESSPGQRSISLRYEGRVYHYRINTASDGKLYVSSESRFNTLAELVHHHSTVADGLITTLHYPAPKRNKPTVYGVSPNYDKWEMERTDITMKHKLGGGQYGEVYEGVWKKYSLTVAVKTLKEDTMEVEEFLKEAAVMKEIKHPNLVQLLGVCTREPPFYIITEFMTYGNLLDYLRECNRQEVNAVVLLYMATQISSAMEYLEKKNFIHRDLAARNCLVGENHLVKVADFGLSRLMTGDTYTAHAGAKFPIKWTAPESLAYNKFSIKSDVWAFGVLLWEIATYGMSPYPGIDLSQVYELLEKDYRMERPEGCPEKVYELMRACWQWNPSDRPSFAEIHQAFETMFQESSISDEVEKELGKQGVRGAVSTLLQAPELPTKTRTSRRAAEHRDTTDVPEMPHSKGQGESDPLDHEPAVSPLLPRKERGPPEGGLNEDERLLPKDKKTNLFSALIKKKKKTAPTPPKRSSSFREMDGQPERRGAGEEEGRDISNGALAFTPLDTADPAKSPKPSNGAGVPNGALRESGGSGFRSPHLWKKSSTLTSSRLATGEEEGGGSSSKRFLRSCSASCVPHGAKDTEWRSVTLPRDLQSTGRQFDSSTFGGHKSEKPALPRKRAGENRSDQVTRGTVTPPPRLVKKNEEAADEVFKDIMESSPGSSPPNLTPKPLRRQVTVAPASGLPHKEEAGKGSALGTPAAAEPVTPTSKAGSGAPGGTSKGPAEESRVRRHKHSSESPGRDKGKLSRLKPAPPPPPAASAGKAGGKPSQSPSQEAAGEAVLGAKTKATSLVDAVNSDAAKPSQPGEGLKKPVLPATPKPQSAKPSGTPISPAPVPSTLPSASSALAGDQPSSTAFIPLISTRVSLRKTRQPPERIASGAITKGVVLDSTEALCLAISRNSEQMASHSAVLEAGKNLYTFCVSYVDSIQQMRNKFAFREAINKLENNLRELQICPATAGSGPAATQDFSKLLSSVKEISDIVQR
Experimental: as §1, §2, §3

[6] = read-out: INHIBITORY EFFECT @ 1 uM: ACK1
[7] = read-out: INHIBITORY EFFECT @ 1 uM: ABL1

With `O=C(c1ccc(Oc2ccccc2)cc1Cl)c1c[nH]c2ncnc(N[C@@H]3CC[C@@H](CO)OC3)c12` [ARQ-531, (2-chloro-4-phenoxyphenyl) (4-(((3R,6S)-6-(hydroxymethyl)tetrahydro-2H-pyran-3-yl)amino)-7H-pyrrolo[2,3-d]pyrimidin-5-yl) methanone] the inhibition at 1 µM [1] was 70 to 89%, the inhibition at 1 µM [2, 6] was 90 to 100% and the inhibition at 1 µM [3] was 70 to 89%. The inhibition at 1 µM [4] was 70 to 89%.
`Cc1cccnc1[C@H]1CCC[C@@H](c2ncccc2C)N1CCN1CCN(C(=O)c2ccc(-c3cc4c(-c5cccc(NC(=O)c6ccccc6)c5C)ncnc4[nH]3)cc2)CC1` [Compound I-10, N-(3-(6-(4-(4-(2-((2R,6S)-2,6-bis(3-methylpyridin-2-yl)piperidin-1-yl)ethyl)piperazine-1-carbonyl)phenyl)-7H-pyrrolo[2,3-d]pyrimidin-4-yl)-2-methylphenyl)benzamide] showed an inhibition at 1 µM [1] of less than 50%, an inhibition at 1 µM ([2]; 1 μM, read-out: inhibitor effect on ACK1) of no less than 90% and an inhibition at 1 µM [2, 6] of 90 to 100%. For the same molecule, the inhibition at 1 µM ([5]; at 1 μM, read-out: inhibition of ABL1) was 50 to 89%, the inhibition at 1 µM [5, 7] was 70 to 89% and the inhibition at 1 µM [3] was less than 50%. The inhibition at 1 µM [4] was less than 50%.
`COc1ccc(F)cc1C(=O)NCc1ccc(-c2nn([C@@H](C)C(F)(F)F)c(N)c2C(N)=O)cc1` [LOXO-305, pirtobrutinib] showed an inhibition at 1 µM [1] of less than 50%, an inhibition at 1 µM [2, 6] of less than 50% and an inhibition at 1 µM [5, 7] of less than 50%. For the same molecule, the inhibition at 1 µM [3] was less than 50% and the inhibition at 1 µM [4] was less than 50%.
Work on `C=CC(=O)N1CCC([C@@H]2CCNc3c(C(N)=O)c(-c4ccc(Oc5ccccc5)cc4)nn32)CC1` [Zanubrutinib, (7S)-2-(4-phenoxyphenyl)-7-(1-prop-2-enoylpiperidin-4-yl)-4,5,6,7-tetrahydropyrazolo[1,5-a]pyrimidine-3-carboxamide] yielded an inhibition at 1 µM [1] of less than 50%, an inhibition at 1 µM [2, 6] of less than 50% and an inhibition at 1 µM [5, 7] of less than 50%. For the same molecule, the inhibition at 1 µM [3] was less than 50%.
